# Laboratory results from PubChem BioAssay AID1919017 (Molecular Pharmacology Branch, DTP, NCI, 2023).
# Test system: SW1271 complex spheroids with HUVEC/MSC, growth, % test/control
# Test: Anticancer human tumor SW1271 cell line growth inhibition [AhR];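 note: spheroids exposed to agents for 7 days before readout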
# Conditions: for IC50: curve of first compound; for viability, T/C: stronger effect = lower value
# Outline: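 Complex tumor spheroids co-cultured with HUVEC and human MSC stroma; AhR antagonists tested in combination with standard-of-care and investigational agents. Top concentration at or near clinical Cmax (else 10 microM), half-log dilutions; growth expressed as percent test/control.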
# [1] = second compound 0.1 µM, first compound 0.00949 µM
# [2] = second compound 0.1 µM, first compound 0.03 µM
# [3] = second compound 0.1 µM, first compound 0.0949 µM
# [4] = second compound 0.1 µM, first compound 0.3 µM
# [5] = second compound 0.316 µM, first compound 0.00949 µM
# [6] = second compound 0.316 µM, first compound 0.03 µM
# [7] = second compound 0.316 µM, first compound 0.0949 µM
# [8] = second compound 0.316 µM, first compound 0.3 µM
# [9] = second compound 1 µM, first compound 0.00949 µM
# [10] = second compound 1 µM, first compound 0.03 µM
# [11] = second compound 1 µM, first compound 0.0949 µM
# [12] = second compound 1 µM, first compound 0.3 µM
# [13] = second compound 3.16 µM, first compound 0.00949 µM
# [14] = second compound 3.16 µM, first compound 0.03 µM
# [15] = second compound 3.16 µM, first compound 0.0949 µM
# [16] = second compound 3.16 µM, first compound 0.3 µM
# [17] = second compound 10 µM, first compound 0.00949 µM
# [18] = second compound 10 µM, first compound 0.03 µM
# [19] = second compound 10 µM, first compound 0.0949 µM
# [20] = second compound 10 µM, first compound 0.3 µM
smiles,measurement,setting,value
CC1COCCN1c1cc(C2(S(C)(=N)=O)CC2)nc(-c2ccnc3[nH]ccc23)n1 (stereo not given) + Cc1cncc(-c2nc(NCCc3c[nH]c4ccccc34)c3ncn(C(C)C)c3n2)c1,IC50,second compound 0.1 µM,> 10000 nM
same,IC50,second compound 0.316 µM,> 10000 nM
same,IC50,second compound 1 µM,> 10000 nM
same,IC50,second compound 3.16 µM,> 10000 nM
same,IC50,second compound 10 µM,< 31.6 nM
same,"viability, T/C","second compound 0.1 µM, first compound 0.0316 µM",87.4%
same,"viability, T/C","second compound 0.1 µM, first compound 0.1 µM",103%
same,"viability, T/C","second compound 0.1 µM, first compound 0.316 µM",85.7%
same,"viability, T/C","second compound 0.1 µM, first compound 1 µM",88.1%
same,"viability, T/C","second compound 0.1 µM, first compound 3.16 µM",85.3%
same,"viability, T/C","second compound 0.1 µM, first compound 10 µM",67.8%
same,"viability, T/C","second compound 0.316 µM, first compound 0.0316 µM",85.5%
same,"viability, T/C","second compound 0.316 µM, first compound 0.1 µM",103%
same,"viability, T/C","second compound 0.316 µM, first compound 0.316 µM",106%
same,"viability, T/C","second compound 0.316 µM, first compound 1 µM",103%
same,"viability, T/C","second compound 0.316 µM, first compound 3.16 µM",71.7%
same,"viability, T/C","second compound 0.316 µM, first compound 10 µM",52.6%
same,"viability, T/C","second compound 1 µM, first compound 0.0316 µM",83.7%
same,"viability, T/C","second compound 1 µM, first compound 0.1 µM",87.7%
same,"viability, T/C","second compound 1 µM, first compound 0.316 µM",88.7%
same,"viability, T/C","second compound 1 µM, first compound 1 µM",84.5%
same,"viability, T/C","second compound 1 µM, first compound 3.16 µM",90.2%
same,"viability, T/C","second compound 1 µM, first compound 10 µM",62.7%
same,"viability, T/C","second compound 3.16 µM, first compound 0.0316 µM",83%
same,"viability, T/C","second compound 3.16 µM, first compound 0.1 µM",93%
same,"viability, T/C","second compound 3.16 µM, first compound 0.316 µM",93.6%
same,"viability, T/C","second compound 3.16 µM, first compound 1 µM",71.1%
same,"viability, T/C","second compound 3.16 µM, first compound 3.16 µM",69.4%
same,"viability, T/C","second compound 3.16 µM, first compound 10 µM",59.3%
same,"viability, T/C","second compound 10 µM, first compound 0.0316 µM",51.6%
same,"viability, T/C","second compound 10 µM, first compound 0.1 µM",46.9%
same,"viability, T/C","second compound 10 µM, first compound 0.316 µM",45.5%
same,"viability, T/C","second compound 10 µM, first compound 1 µM",40%
same,"viability, T/C","second compound 10 µM, first compound 3.16 µM",43.3%
same,"viability, T/C","second compound 10 µM, first compound 10 µM",28.9%
Nc1ncn(C2CC(O)C(CO)S2)c(=O)n1 (stereo not given) + Cc1cncc(-c2nc(NCCc3c[nH]c4ccccc34)c3ncn(C(C)C)c3n2)c1,IC50,second compound 0.1 µM,> 300 nM
same,IC50,second compound 0.316 µM,> 300 nM
same,IC50,second compound 1 µM,> 300 nM
same,IC50,second compound 3.16 µM,> 300 nM
same,IC50,second compound 10 µM,< 0.949 nM
same,"viability, T/C","second compound 0.1 µM, first compound 0.000949 µM",73.1%
same,"viability, T/C","second compound 0.1 µM, first compound 0.003 µM",93.7%
same,"viability, T/C",[1],97.1%
same,"viability, T/C",[2],90.9%
same,"viability, T/C",[3],99.6%
same,"viability, T/C",[4],98.5%
same,"viability, T/C","second compound 0.316 µM, first compound 0.000949 µM",94.2%
same,"viability, T/C","second compound 0.316 µM, first compound 0.003 µM",84.2%
same,"viability, T/C",[5],81.8%
same,"viability, T/C",[6],84.8%
same,"viability, T/C",[7],101%
same,"viability, T/C",[8],90.9%
same,"viability, T/C","second compound 1 µM, first compound 0.000949 µM",93.8%
same,"viability, T/C","second compound 1 µM, first compound 0.003 µM",104%
same,"viability, T/C",[9],104%
same,"viability, T/C",[10],98.7%
same,"viability, T/C",[11],96.9%
same,"viability, T/C",[12],90.5%
same,"viability, T/C","second compound 3.16 µM, first compound 0.000949 µM",94.1%
same,"viability, T/C","second compound 3.16 µM, first compound 0.003 µM",86.4%
same,"viability, T/C",[13],86%
same,"viability, T/C",[14],82.3%
same,"viability, T/C",[15],74.2%
same,"viability, T/C",[16],78.4%
same,"viability, T/C","second compound 10 µM, first compound 0.000949 µM",45.5%
same,"viability, T/C","second compound 10 µM, first compound 0.003 µM",44.8%
same,"viability, T/C",[17],45.6%
same,"viability, T/C",[18],39.8%
same,"viability, T/C",[19],49.3%
same,"viability, T/C",[20],43.9%
O=C(C=Cn1cnc(-c2cc(C(F)(F)F)cc(C(F)(F)F)c2)n1)NNc1cnccn1 + Cc1cncc(-c2nc(NCCc3c[nH]c4ccccc34)c3ncn(C(C)C)c3n2)c1,IC50,second compound 0.1 µM,913 nM
same,IC50,second compound 0.316 µM,2330 nM
same,IC50,second compound 1 µM,2470 nM
same,IC50,second compound 3.16 µM,> 3000 nM
same,IC50,second compound 10 µM,< 9.49 nM
same,"viability, T/C",[1],83.3%
same,"viability, T/C",[2],103%
same,"viability, T/C",[3],87.1%
same,"viability, T/C",[4],82.4%
same,"viability, T/C","second compound 0.1 µM, first compound 0.949 µM",48.6%
same,"viability, T/C","second compound 0.1 µM, first compound 3 µM",44.6%
same,"viability, T/C",[5],88.2%
same,"viability, T/C",[6],91.9%
same,"viability, T/C",[7],88%
same,"viability, T/C",[8],74.5%
same,"viability, T/C","second compound 0.316 µM, first compound 0.949 µM",65.9%
same,"viability, T/C","second compound 0.316 µM, first compound 3 µM",45.6%
same,"viability, T/C",[9],105%
same,"viability, T/C",[10],96.6%
same,"viability, T/C",[11],97.7%
same,"viability, T/C",[12],72.2%
same,"viability, T/C","second compound 1 µM, first compound 0.949 µM",62.8%
same,"viability, T/C","second compound 1 µM, first compound 3 µM",47%
same,"viability, T/C",[13],97.7%
same,"viability, T/C",[14],88.2%
same,"viability, T/C",[15],97.5%
same,"viability, T/C",[16],87.7%
same,"viability, T/C","second compound 3.16 µM, first compound 0.949 µM",67.7%
same,"viability, T/C","second compound 3.16 µM, first compound 3 µM",53.2%
same,"viability, T/C",[17],44.4%
same,"viability, T/C",[18],48.4%
same,"viability, T/C",[19],55%
same,"viability, T/C",[20],59.3%
same,"viability, T/C","second compound 10 µM, first compound 0.949 µM",50.1%
same,"viability, T/C","second compound 10 µM, first compound 3 µM",47.7%
